From patent publication US9598384B2, “3-(2-amino-ethyl)-alkylidene)-thiazolidine-2,4-dione and 1-(2-amino-ethyl)-alkylidene-1,3-dihydro-indol-2-one derivatives as selective sphingosine kinase 2 inhibitors” (VIRGINIA COMMONWEALTH UNIVERSITY, priority 2012, dated 2017)

Columns and labels:
SphK1 = SphK1 (Homo sapiens, UniProt Q9NYA1); assay: SphK1 activity assay; assay type: biochemical; conditions: relative activity vs no inhibitor; compounds at 10 μM (FIGS. 1, 4, 6)
Experimental: A) SphK1 and SphK2 activities were measured with 5 μM sphingosine in the absence or presence of the indicated concentrations of K145 or 10 μM DMS. Data are expressed as percentage SphK activity in the absence of inhibitor; B) Effect of K145 (10 μM) on activity of the indicated enzymes was tested by SelectScreen Kinase Profiling from Invitrogen. CaMK11β, Ca2+/calmodulin-dependent protein kinase II; CDK2, cyclin-dependent kinase 2; EGFR, Epidermal Growth Factor Receptor; Fyn, Fyn Kinase (p55); ERK2, extracellular signal-regulated kinase 2; ERK1, extracellular signal-regulated kinase 1; PKA, protein kinase A; PKCα, protein kinase C α; P13K, phosphatidylinositide 3-kinase. Data are expressed as percentage of control activity averaged from 2 independent experiments.
FIG. 3. SphK2 was incubated with indicated compounds at 10 μM, then the activity of SphK2 was determined. The data shown here is a relative activity of SphK2 compared to control (no inhibitor, column labeled Sph in the Figure). 96047 is a known SpK2 inhibitor. A5, B26, K25 and QLA13 are known compounds [Li et al. (2009) Bioorg Med Chem Lett 19: 6042-6046; Liu et al. (2012) Eur J Med Chem 47: 125-137] and were tested for purposes of comparison. “A” and “B” refer to different batches of a compound. FIG. 4. SphK1 was incubated with indicated compounds at 10 μM, then the activity of SphK1 was determined. The data shown here is a relative activity of SphK1 compared to control (no inhibitor, column labeled Sph in the Figure). 96091 is a known Spk1 inhibitor. A5, B26, K25 and QLA13 are as above for […]. “A” and “B” refer to different batches of a compound.
FIG. 6. SphK1 was incubated with indicated compounds at 10 μM, then the activity of SphK2 was determined. The data shown here is a relative activity of SphK2 compared to control (no inhibitor).

[1] = test system: Raf/MEK/ERK and PI3K/Akt signaling pathways; assay: Western blot analysis of ERK and Akt phosphorylation; assay type: cell-based
Experimental: Cells (5×10^5 per ml) were treated with various concentrations of test compound at 37° C. (5% CO2) for 3 hrs, then stimulated with TPA at a final concentration of 200 nM for 20 min. Samples from whole-cell pellets were prepared and 30 μg protein for each condition was subjected to SDS-PAGE, transferred onto a PVDF membrane, and blocked with 5% fat-free milk for 30 min. The membrane is probed with primary antibodies overnight at 4° C. followed by incubation with horseradish peroxidase-labeled anti-mouse IgG (1:5000, BD Bioscience). The immunoreactive bands are detected by chemilluminescence methods (Pierce) and visualized on Kodak Omat film. The following primary antibodies were used: phospho-p44/42 MAPK (ERK1/2, Thr202/Tyr204), p44/42 MAPK, phospho-p90RSK (Thr359/Ser363), RSK1/RSK2/RSK3 (Cell Signaling). Blots were reprobed with antibodies against α-tubulin to ensure equal loading and transfer of proteins.

U937 cells = assay: Cell apoptosis assay, annexin V/PI flow cytometry; assay type: cell-based, human
Experimental: Apoptosis was measured by flow cytometry using annexin V/propidium iodide (PI) as staining reagent. […] The cells were then incubated with annexin V-fluorescein isothiocyanate (FITC) (BD PharMingen, San Diego, Calif.) and 5 μg/mL propidium iodide (PI), and incubated for 15 minutes at room temperature in the dark per the manufacturer's instructions. The samples were analyzed by flow cytometry using a Becton Dickinson FACScan (Becton Dickinson, San Jose, Calif.) within 1 hr to determine the percentage of cells displaying annexin V staining (early apoptosis) or both annexin V and PI staining (late apoptosis).

JC xenograft = assay: JC xenografts in syngenic BALB/c mice, i.p.; assay type: in vivo
Experimental: FIG. 14A-E. K145 suppresses the growth of JC xenograft in BALB/c mice. BALB/c mice (n=8) with palpable JC xenograft were treated daily with vehicle or K145 (20 mg/kg and 35 mg/kg) for 15 days by i.p. injection.
Female BALB/c mice (n=12) were injected with 1×10^6 JC cells subcutaneously in the flank, and treatment with the compound produced as described in Example 15 i.e. 3-(2-aminoethyl)-5-[3-(4-butoxyphenyl)-propylidene]-thiazolidine-2,4-dione (Formula III-K145, 20 mg/kg and 35 mg/Kg dosage daily (i.p.) was started seven days after the tumor cell injection and stopped at day […]. Mice were sacrificed at 15 days treatment.

Chain of SphK1 (Q9NYA1 whole entry, species assumed): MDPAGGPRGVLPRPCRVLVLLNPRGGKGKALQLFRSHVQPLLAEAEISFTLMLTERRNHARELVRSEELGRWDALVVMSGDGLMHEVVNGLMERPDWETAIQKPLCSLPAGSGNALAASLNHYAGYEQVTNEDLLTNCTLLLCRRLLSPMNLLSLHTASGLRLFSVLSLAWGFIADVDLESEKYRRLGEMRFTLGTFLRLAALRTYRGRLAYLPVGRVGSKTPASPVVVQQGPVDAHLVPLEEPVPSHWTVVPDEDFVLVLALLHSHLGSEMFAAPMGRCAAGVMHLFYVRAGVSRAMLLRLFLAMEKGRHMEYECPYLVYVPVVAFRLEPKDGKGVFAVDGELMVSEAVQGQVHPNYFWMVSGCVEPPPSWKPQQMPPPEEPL

Question: Which “inhibition of SphK1 activity (in words)” value (SphK1) does the source give for `CCCCOc1ccc(CC/C=C2\SC(=O)N(CCN)C2=O)cc1` [K145, 3-(2-aminoethyl)-5-[3-(4-butoxyl-phenyl)-propylidene]-thiazolidine-2,4-dione] here?
Answer: The value was “not SphK1”.

Question: What about the “phosphorylation of both ERK and Akt” value ([1]; 3 μM, 3 hrs treatment, then TPA stimulation) of the same compound?
Answer: The value was “significantly inhibited”.

Question: And the “inhibition of Raf/MEK/ERK and PI3K/Akt signaling pathways” value ([1]; Western blot, FIGS. 9 and 10)?
Answer: Its value is “inhibits”.

Question: What about the “induction of apoptosis in U937 cells” value (U937 cells; 5 μM, after 18 hrs) of the same compound?
Answer: Its value is “significantly induced apoptosis”.

Question: And the “induction of apoptosis in U937 cells” value (U937 cells; 10 μM, 4 hrs treatment)?
Answer: The value was “significantly induced apoptosis”.

Question: And the “induction of apoptosis in U937 cells” value (U937 cells; varying concentrations and intervals)?
Answer: The value was “significantly and dose-dependently induced apoptosis”.

Question: What about the “S1P level in JC tumor samples” value (JC xenograft; 20 mg/kg group vs vehicle, ESI-MS/MS) of the same compound?
Answer: The value was “suppressed”.

Question: And the “K145 level in JC tumor samples” value (JC xenograft; 20 mg/kg group, ESI-MS/MS)?
Answer: Its value is “detected”.

Question: What about the “p-ERK and p-Akt levels in tumor samples” value (JC xenograft; 20 mg/kg vs vehicle, Western blot) of the same compound?
Answer: Its value is “decreased”.

Question: And the “changes in body weights and major organs (heart, lung, liver, kidney)” value (JC xenograft; 20 and 35 mg/kg i.p., 15 days)?
Answer: Its value is “did not observe significant changes”.

Question: What about the “tumor weights vs vehicle-treated mice” value (JC xenograft; 20 and 35 mg/kg i.p., 15 days) of the same compound?
Answer: The value was “significantly less”.

Question: What about the “mean volume of JC tumors smaller than in vehicle-treated mice” value (JC xenograft; both doses (20 and 35 mg/kg daily i.p.), after 15 days) of the same compound?
Answer: The value was > 50%.
